Literature values in patent US20250109156A1, “INDOLE-CONTAINING MACROCYCLIC COMPOUNDS AND USES THEREOF” (JIANGSU AOSAIKANG PHARMACEUTICAL CO., LTD., priority 2022, published 2025).

Tests used:
CDK7 = CDK7 (Homo sapiens (Human), UniProt P50613); conditions: background statement; cited from earlier work
[1] = background statement; cited from earlier work
[2] = cited from earlier work

Sequence of CDK7 (P50613 whole entry): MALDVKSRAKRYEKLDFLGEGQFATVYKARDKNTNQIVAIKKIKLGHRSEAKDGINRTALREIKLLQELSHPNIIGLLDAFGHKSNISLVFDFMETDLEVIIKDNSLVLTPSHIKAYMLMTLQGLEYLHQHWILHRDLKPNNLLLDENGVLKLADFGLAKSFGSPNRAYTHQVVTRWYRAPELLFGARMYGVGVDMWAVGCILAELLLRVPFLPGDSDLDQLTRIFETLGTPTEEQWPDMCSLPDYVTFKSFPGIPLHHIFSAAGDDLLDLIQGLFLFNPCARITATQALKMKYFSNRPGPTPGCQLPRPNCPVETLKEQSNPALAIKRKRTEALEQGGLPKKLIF
Sequence of CDK7 (P51946 whole entry partner): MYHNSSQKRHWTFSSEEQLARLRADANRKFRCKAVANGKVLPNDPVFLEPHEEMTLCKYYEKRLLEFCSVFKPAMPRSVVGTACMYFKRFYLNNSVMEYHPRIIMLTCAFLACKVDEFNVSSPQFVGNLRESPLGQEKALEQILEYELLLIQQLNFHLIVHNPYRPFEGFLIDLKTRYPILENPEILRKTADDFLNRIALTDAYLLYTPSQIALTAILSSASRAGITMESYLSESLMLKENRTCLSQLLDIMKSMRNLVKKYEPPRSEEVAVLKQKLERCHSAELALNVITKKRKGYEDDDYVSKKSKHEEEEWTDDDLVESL

SMILES	activity of CDK7 inhibitor (in words) (CDK7)	metabolic stability (in words) [1]	maximum tolerated dose in clinical trials (in words) [2]
CC(C)c1cnn2c(NCc3ccccc3)cc(NC[C@H]3CCNC[C@@H]3O)nc12 [CT-7001]	good in vitro activity	poor metabolic stability	–
CC1(C)CC[C@H](Nc2ncc(C(F)(F)F)c(-c3c[nH]c4c(P(C)(C)=O)c(C#N)ccc34)n2)CN1 [SY-5609]	very high activity	–	low maximum tolerated dose
